Assay results: patent publication US8546085B2, “Methods of identifying modulators of the bitter taste receptor TAS2R44” (Givaudan SA, priority 2008, dated 2013)
Peptide text beside a SMILES is read from it.

What was measured:
Type in all cases: cell-based
[1] = biological target: T1, TAS2R44 (Homo sapiens, UniProt P59538, L162M); experiment: Fluo-4 calcium assay, activation of TAS2R44 by agonists; conditions: for EC50: HEK293T cells stably expressing Gα16-gustducin44 and TAS2R44, nonlinear regression, read-out: calculated EC50 value for TAS2R44; for calcium signaling upon addition: cells stably expressing human TAS2R44
T1 construct: The full length gene of human TAS2R44 was amplified by polymerase chain reaction (PCR) using gene-specific primers that span the entire coding region; RSS tag (first 45 amino acids of rat somatostatin receptor subtype 3, plus EcoRI site) (N); expressed in transfected cells; host or cells: HEK293T/Galpha16-gustducin 44 cells, stably transfected with pcDNA3.1Zeo-TAS2R44
T1 sequence (P59538 with tags, fused parts or gaps L162M): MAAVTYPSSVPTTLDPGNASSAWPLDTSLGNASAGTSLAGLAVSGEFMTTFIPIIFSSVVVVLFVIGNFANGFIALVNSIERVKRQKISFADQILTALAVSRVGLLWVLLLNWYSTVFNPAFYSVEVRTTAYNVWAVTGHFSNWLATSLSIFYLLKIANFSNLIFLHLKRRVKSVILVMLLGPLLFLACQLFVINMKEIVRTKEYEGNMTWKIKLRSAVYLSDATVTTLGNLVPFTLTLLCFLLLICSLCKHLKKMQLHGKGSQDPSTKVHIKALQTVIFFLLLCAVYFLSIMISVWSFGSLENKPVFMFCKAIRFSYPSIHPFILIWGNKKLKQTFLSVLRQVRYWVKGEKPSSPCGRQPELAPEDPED
Procedure: Fluo-4AM (Invitrogen, Carlsbad, Calif., US) is a fluorescent indicator of intracellular calcium dynamics (change in concentration) and allows monitoring changes in the calcium concentration, particularly an increase in response to receptor activation occurring after agonist exposure.
At day 0, the HEK293T cell line expressing Gα16-gustducin44 and a TAS2R bitter taste receptor formed as described in examples 2b or 2c was seeded in antibiotic-free growth medium (standard DMEM with 10% (v/v) heat-inactivated fetal bovine serum, 2 mM L-glutamine[…]) into black wall/clear bottom 96-well plates, coated with poly(ethylenimine) (0.005% v/v) at a concentration of 15,000 cells per well and incubated for 48 hours in humidified atmosphere (37° C., 5% CO2).
At the time of the assay, the growth medium was discarded and the cells were in humidified atmosphere (37° C., 5% CO2) for 1 hour with 50 μl of loading buffer consisting of 1.5 μM Fluo-4 AM and […] probenicid (Sigma-Aldrich, St. Louis, Mo., US) in DMEM.
Afterwards, the 96-well plate was washed 5 times with 100 μl of assay buffer (130 mM NaCl, 5 mM KCl, 10 mM HEPES, 2 mM CaCl2, and 5 mM dextrose, pH 7.4) per well, using an automated plate washer (BioTek). The plate was further incubated for 30 minutes at room temperature in the dark to allow for complete de-esterification of the Fluo-4. Afterwards the plate was washed 5 times with 100 μl of assay buffer per well, and reconstituted with 100 μl of assay buffer per well.
For assay reading, the plate was placed in a Fluorometric Imaging Plate Reader (FLIPR) (FLIPR-TETRA™, Molecular Devices, Sunnyvale, Calif., US), and receptor activation was initiated by addition of 100 μl of a twofold concentrated agonist stock solution (to give the desired agonist end concentration when added to the 100 microliter assay buffer volume), which was prepared in assay buffer.
Fluorescence was continuously monitored for 20 seconds to give a signal baseline (averaged to give F0) prior to agonist addition and for 120 seconds after agonist addition. The change in signal divided by F0 gives ΔF/F0 indicated in the table, with ΔF being the maximum signal occurring within the 120 seconds minus the minimum signal (occurring within the 120 seconds after agonist addition.
All data was collected from at least two independent experiments each carried out in triplicate.
A concentration-response analysis was performed and EC50 values were calculated by nonlinear regression using the function f(x)=(a−d)/(1+(x/C)^nh)+d; with a=minimum signal, d=maximum signal, nh=hill coefficient, C=EC50. , and x=agonist concentration. EC50 is the molar concentration of an agonist which produces 50% of the maximum possible effective response for that agonist.
(§1) The obtained calcium signals were corrected for the response of cells expressing only the G Proteinα subunit (Gα16-gustducin44) and normalized to the fluorescence of cells prior to the stimulus using ΔF/F0 (Fmax−Fmin/F0).
To confirm that the cell line formed in example 2c stably expresses the bitter taste receptor TAS2R44, a concentration-response curve for saccharin, a known agonist of TAS2R44, was generated. […] The standard deviation (+/−STD) is also indicated.
The intracellular calcium response following addition of steviol glycosides (stevioside, rebaudioside A) was determined in HEK293T cell line stably expressing Gα16-gustducin44 and TAS2R44 formed as described in example 2a.

[2] = tested on: HEK293T Gα16gustducin44 cells (that do not express TAS2R44); experiment: Fluo-4 calcium assay, negative control cells without TAS2R44; conditions: for change in signal in the negative control: cells expressing only Gα16-gustducin44
From the text: as §1
As a negative control to determine unspecific signals, each of the applied concentrations of each F(I) steviol glycoside was applied to cells expressing only Gα16gustducin44.

[3] = biological target: T1, TAS2R44; experiment: Fluo-4 calcium assay, antagonists of the response of TAS2R44 to steviol glycosides; conditions: without bitter blocker
Procedure: All cells were HEK293T cells stably expressing Gα16-gustducin44, or expressing Gα16-gustducin44 and TAS2R44.
The method was carried out as described in example 3 subject to the following modifications:
The samples were tested with and without candidate bitter blocker and the signals were compared. The candidate bitter blocker was dissolved in dimethylsulfoxide (DMSO), and a negative control with equivalent DMSO concentration (0.02%) was performed accordingly to exclude a potential inhibitory effect of the solvent. Furthermore, a control with the relevant steviol glycoside and DMSO (0.02%) was performed accordingly (see table in example 5).
All data was calculated as ΔF/F0 and the standard deviation (STD) is indicated in each table, see results for the identified bitter blocker 4-(2,2,3-trimethyl-cyclopentyl)-butanoic acid below.

COC(=O)[C@H](Cc1ccccc1)NC(=O)[C@@H](N)CC(=O)O [aspartame] (H-Asp-Phe-OMe)
agonist for TAS2R44 ([1]; sweeteners with a known bitter off-note): not to be agonists

C=C1C[C@@]23CC[C@H]4[C@@](C)(CCC[C@@]4(C)C(=O)O[C@@H]4O[C@H](CO)[C@@H](O)[C@H](O)[C@H]4O)[C@@H]2CC[C@]1(O[C@@H]1O[C@H](CO)[C@@H](O)[C@H](O[C@@H]2O[C@H](CO)[C@@H](O)[C@H](O)[C@H]2O)[C@H]1O[C@@H]1O[C@H](CO)[C@@H](O)[C@H](O)[C@H]1O)C3 [rebaudioside A]
change in signal in the negative control [2]: No significant change | Neg. Control ΔF/F0 ([2]; rebaudioside A 0.004 mM): 0.061 | Neg. Control ΔF/F0 ([2]; rebaudioside A 0.008 mM): 0.0635 | Neg. Control ΔF/F0 ([2]; rebaudioside A 0.016 mM): 0.054 | Neg. Control ΔF/F0 ([2]; rebaudioside A 0.031 mM): 0.063 | Neg. Control ΔF/F0 ([2]; rebaudioside A 0.063 mM): 0.0685 | Neg. Control ΔF/F0 ([2]; rebaudioside A 0.125 mM): 0.087 | Neg. Control ΔF/F0 ([2]; rebaudioside A 0.625 mM): 0.1115 | Neg. Control ΔF/F0 ([2]; rebaudioside A 2.500 mM): 0.153 | Neg. Control ΔF/F0 ([2]; rebaudioside A 5.000 mM): 0.208 | EC50 [1]: 700 µM | calcium signaling upon addition [1]: significant increase | TAS2R44 ΔF/F0 ([1]; rebaudioside A 0.004 mM): 0.07687 | TAS2R44 ΔF/F0 ([1]; rebaudioside A 0.008 mM): 0.07938 | TAS2R44 ΔF/F0 ([1]; rebaudioside A 0.016 mM): 0.0975 | TAS2R44 ΔF/F0 ([1]; rebaudioside A 0.031 mM): 0.1681 | TAS2R44 ΔF/F0 ([1]; rebaudioside A 0.063 mM): 0.1619 | TAS2R44 ΔF/F0 ([1]; rebaudioside A 0.125 mM): 0.32 | TAS2R44 ΔF/F0 ([1]; rebaudioside A 0.625 mM): 0.7025 | TAS2R44 ΔF/F0 ([1]; rebaudioside A 2.500 mM): 0.7819 | TAS2R44 ΔF/F0 ([1]; rebaudioside A 5.000 mM): 0.6262 | rebaudioside positive control average ΔF/F0 ([3]; 0.7 mM rebaudioside A (EC50) alone): 0.4625

O=C1NS(=O)(=O)c2ccccc21 [saccharin]
change in signal in the negative control [2]: did not show any significant change in signal | Neg. Control ΔF/F0 ([2]; saccharin 10.0000 mM): 0.020 | TAS2R44 ΔF/F0 ([1]; saccharin 0.0391 mM): 0.024 | TAS2R44 ΔF/F0 ([1]; saccharin 0.0781 mM): 0.075 | TAS2R44 ΔF/F0 ([1]; saccharin 0.1563 mM): 0.181 | TAS2R44 ΔF/F0 ([1]; saccharin 0.3125 mM): 0.388 | TAS2R44 ΔF/F0 ([1]; saccharin 0.6250 mM): 0.668 | TAS2R44 ΔF/F0 ([1]; saccharin 1.2500 mM): 0.947 | TAS2R44 ΔF/F0 ([1]; saccharin 2.5000 mM): 1.150 | TAS2R44 ΔF/F0 ([1]; saccharin 5.0000 mM): 1.258 | TAS2R44 ΔF/F0 ([1]; saccharin 10.0000 mM): 1.354

C=C1C[C@@]23CC[C@H]4[C@@](C)(CCC[C@@]4(C)C(=O)O[C@@H]4O[C@H](CO)[C@@H](O)[C@H](O)[C@H]4O)[C@@H]2CC[C@]1(O[C@@H]1O[C@H](CO)[C@@H](O)[C@H](O)[C@H]1O[C@@H]1O[C@H](CO)[C@@H](O)[C@H](O)[C@H]1O)C3 [stevioside]
change in signal in the negative control [2]: No significant change | Neg. Control ΔF/F0 ([2]; stevioside 0.004 mM): 0.061 | Neg. Control ΔF/F0 ([2]; stevioside 0.008 mM): 0.059 | Neg. Control ΔF/F0 ([2]; stevioside 0.016 mM): 0.059 | Neg. Control ΔF/F0 ([2]; stevioside 0.031 mM): 0.074 | Neg. Control ΔF/F0 ([2]; stevioside 0.063 mM): 0.065 | Neg. Control ΔF/F0 ([2]; stevioside 0.125 mM): 0.063 | Neg. Control ΔF/F0 ([2]; stevioside 0.625 mM): 0.062 | Neg. Control ΔF/F0 ([2]; stevioside 2.500 mM): 0.010 | Neg. Control ΔF/F0 ([2]; stevioside 5.000 mM): 0.435 | EC50 [1]: 2200 µM | calcium signaling upon addition [1]: significant increase | TAS2R44 ΔF/F0 ([1]; stevioside 0.004 mM): 0.082 | TAS2R44 ΔF/F0 ([1]; stevioside 0.008 mM): 0.079 | TAS2R44 ΔF/F0 ([1]; stevioside 0.016 mM): 0.096 | TAS2R44 ΔF/F0 ([1]; stevioside 0.031 mM): 0.112 | TAS2R44 ΔF/F0 ([1]; stevioside 0.063 mM): 0.136 | TAS2R44 ΔF/F0 ([1]; stevioside 0.125 mM): 0.230 | TAS2R44 ΔF/F0 ([1]; stevioside 0.625 mM): 0.451 | TAS2R44 ΔF/F0 ([1]; stevioside 2.500 mM): 0.677 | TAS2R44 ΔF/F0 ([1]; stevioside 5.000 mM): 1.155 | stevioside positive control average ΔF/F0 ([3]; 2.2 mM stevioside (EC50) alone): 0.733
